Assay results reported in PMC7998731, “Pharmacokinetic Characterization of Supinoxin and Its Physiologically Based Pharmacokinetic Modeling in Rats” (Pharmaceutics, 2021).
Read-outs that look alike come from different tables or passages of the source.

Tests used:
[1] = cited from earlier work; for Plasma concentration, Mean: fasted male SD rats, intravenous 1 mg/kg, ref 15 (Table 1 footnote)
[2] = Metabolic stability in rat liver microsomes; format: in vitro ADME
Procedure: In these experiments, the metabolic stability of supinoxin in rat liver microsomes (BD Biosciences, San Jose, CA, USA) was determined. The microsomal reaction mixture comprised the follows: liver microsomal protein (final concentration of 0.5 mg protein per mL reaction mixture) and an NADPH regenerating solution (1.3 mM NADP+, 3.3 mM glucose-6-phosphate, 0.4 U/mL glucose-6-phosphate dehydrogenase, and 3.3 mM MgCl2) in a 100 mM potassium phosphate buffer with a pH of 7.4. After 5 min preincubation of the reaction mixture in a water bath at 37 °C, the reaction was initiated by the addition of a supinoxin solution to obtain a final concentration of 1 µM. Aliquots (50 µL) of the mixture were sampled at 5, 15, 30, and 60 min after the initiation of the reaction. The reaction was terminated by adding a stop solution (200 µL of ice-chilled acetonitrile) to the sample immediately after collection. After mixing by vortexing and centrifugation of the mixtures at 15,000× g for 5 min, an aliquot (150 µL) of the supernatant was analyzed by LC–MS/MS assay. In addition, the metabolic stability of supinoxin was determined in the presence of UDP glucuronic acid under similar reaction conditions, except that uridine 5′-diphosphoglucuronic acid was added instead of the NADPH regenerating solution. Finally, metabolic stability of supinoxin was tested in concentration range of 0.1–10 μM to confirm that the concentration used in the study (1 μM) was below the Km for the metabolic reaction. The amount of sample remaining was plotted against the reaction time to determine the metabolic rate constant of the reaction. Assuming that the substrate concentration was below the Km for the metabolic reaction, the intrinsic clearance was calculated as follows:(6) CLint= Aprotein×ke/fu,mic·Cprotein where Aprotein is the total amount of liver microsomal protein, ke is the metabolic rate constant of the reaction, fu,mic is the unbound fraction of the drug in the reaction mixture, and Cprotein is the microsomal protein concentration (mg/mL) in the reaction mixture. In this calculation, an Aprotein of 1790 mg of protein per kg for rats was used.
When necessary, the hepatic clearance of the compound was calculated using a well-stirred model as follows: (7) CLh= Q·CLint·fu,p/Q+CLint·fu,p/R where Q is the hepatic blood flow, fu,p is the unbound fraction of the drug in the plasma, and R is the blood-to-plasma partition ratio. In this calculation, a hepatic blood flow of 14.5 mL/min for 250 g rat was used, and the blood-to-plasma partition ratio was assumed to be 1.

[3] = Plasma protein binding by Rapid Equilibrium Dialysis; format: in vitro ADME; conditions: rat plasma
Procedure: To determine the unbound fraction of supinoxin in the plasma, a protein binding study was carried out using the Rapid Equilibrium Dialysis (RED) method. Following the manufacturer’s protocol (Thermo Fisher Scientific, San Jose, CA, USA), supinoxin was added to a plasma aliquot to produce a final concentration of 1 µg/mL. A plasma aliquot containing supinoxin (200 µL) and buffer (350 µL) was added to the sample chamber and the buffer chamber, respectively. When necessary, supinoxin was added to the microsomal incubation mixture (0.5 mg of protein per mL in potassium phosphate buffer) to produce final concentrations of 1 µM. The plate was covered and agitated on an orbital shaker at approximately 250 rpm at 37 °C. Aliquots (25 µL) of the plasma and buffer were collected at 4, 8, 18, and 24 h, and the samples were subjected to LC–MS/MS analysis. The fraction of supinoxin bound to plasma protein was estimated as follows:Percent bound (%) = [1 − (concentration in buffer/concentration in plasma)] × 100%(5)

[4] = rats, intravenous, 1 mg/kg, Jeong, J.-W. et al., 2017

For `COc1cc(OC)cc(N2CCN(C(=O)Nc3nc4cc(F)ccc4nc3OC)CC2)c1` [supinoxin, 1-(3,5-Dimethoxyphenyl)-4-[(6-Fluoro-2-Methoxyquinoxalin-3-yl) Aminocarbonyl] Piperazine], the “Plasma concentration, Mean” value ([1]; 0.083 h) is listed as 860.2 ng/mL, the “Plasma concentration, Mean” value ([1]; 0.25 h) is listed as 682.2 ng/mL and the “Plasma concentration, Mean” value ([1]; 0.5 h) is listed as 501.6 ng/mL. For the same molecule, the “Plasma concentration, Mean” value ([1]; 1 h) was 292.4 ng/mL, the “Plasma concentration, Mean” value ([1]; 3 h) was 194.2 ng/mL and the “Plasma concentration, Mean” value ([1]; 7 h) was 52.3 ng/mL. For the same molecule, the “Plasma concentration, Mean” value ([1]; 10 h) was 20.8 ng/mL, the “Plasma concentration, Mean” value ([1]; 24 h, BQL treated as 0) was 0.5 ng/mL and the AUCinf [1, 4] was 1780 ± 300 ng·h/mL. For the same molecule, the AUClast [1, 4] was 1750 ± 320 ng·h/mL, the T1/2 [1, 4] was 158 ± 23.4 min and the Vss [1, 4] was 2.04 ± 0.316 L/kg. The half-life at 1 µM ([2]; pH 7.4, rat liver microsomes, NADPH, 1 µM, read-out: NADPH-dependent metabolic half-life) was 17.1 min, the CLint scaled at 1 µM ([2]; pH 7.4, rat liver microsomes, NADPH, 1 µM, read-out: intrinsic clearance (converted)) was 233 mL/min/kg and the “remaining amount at the end of the 60-min incubation” value ([2]; rat liver microsomes, NADPH, 1 µM) was 12.7 ± 0.1 % of the initial. For the same molecule, the “remaining amount in UDPGA-dependent metabolic stability study” value ([2]; rat liver microsomes, UDPGA, 1 µM, 60 min) was 92.2 ± 0.1%, the half-life versus concentration ([2]; rat liver microsomes, concentration ranges of 0.1–1 μM) was “remained constant” and the “hepatic clearance as share of the total in vivo clearance” value ([2]; vs average clearance of 0.5–5 mg/kg intravenous administration) was 58.5%. For the same molecule, the hepatic clearance ([2]; well-stirred model, from rat liver microsomal incubation) was 7.38 mL/min/kg, the fraction unbound at 4 h, 1 µg/mL ([3]; 1 µg/mL, 4 h incubation) was 0.023 ± 0.0025 and the fraction unbound at 8 h, 1 µg/mL ([3]; 1 µg/mL, 8 h incubation) was 0.0283 ± 0.0019. It also gave a fraction unbound at 24 h, 1 µg/mL ([3]; 1 µg/mL, 24 h incubation) of 0.0354 ± 0.0055 and a fraction unbound at 1 µg/mL ([3]; as fraction, Determined, read-out: Fraction unbound in plasma (fu)) of 0.0363.
